Measurements: patent US12275731B2, “Azaindole inhibitors of wild-type and mutant forms of LRRK2” (DANA-FARBER CANCER INSTITUTE, INC., priority 2018, dated 2025)

What was measured:
Assay in all cases: KinomeScan profiling
Assay type in all cases: binding
LKB1 = target: T1, LKB1 (Homo sapiens, UniProt Q15831); conditions: LKB1, 1 μM; read-out: % control
T1 sequence (Q15831 1-433): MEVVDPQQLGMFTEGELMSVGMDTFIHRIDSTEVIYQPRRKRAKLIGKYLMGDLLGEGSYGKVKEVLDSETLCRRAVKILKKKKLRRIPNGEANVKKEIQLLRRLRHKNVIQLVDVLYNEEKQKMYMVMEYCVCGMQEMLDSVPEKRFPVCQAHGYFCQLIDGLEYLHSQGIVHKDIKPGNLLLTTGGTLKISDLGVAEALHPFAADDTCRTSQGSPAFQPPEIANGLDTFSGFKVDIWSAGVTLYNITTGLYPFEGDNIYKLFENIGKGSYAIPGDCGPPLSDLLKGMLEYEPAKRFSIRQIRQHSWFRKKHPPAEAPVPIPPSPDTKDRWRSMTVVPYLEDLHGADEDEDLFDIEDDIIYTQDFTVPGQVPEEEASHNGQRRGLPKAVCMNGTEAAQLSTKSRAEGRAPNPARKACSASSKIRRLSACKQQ
Procedure, shortened: (§1)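 Selectivity was assessed by binding competition at 1 μM against 468 kinases. Values below 35% of control define an interaction.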

CSNK1E = CSNK1E (Homo sapiens, UniProt P49674); conditions: read-out: % control
CSNK1E, sequence (P49674 whole entry): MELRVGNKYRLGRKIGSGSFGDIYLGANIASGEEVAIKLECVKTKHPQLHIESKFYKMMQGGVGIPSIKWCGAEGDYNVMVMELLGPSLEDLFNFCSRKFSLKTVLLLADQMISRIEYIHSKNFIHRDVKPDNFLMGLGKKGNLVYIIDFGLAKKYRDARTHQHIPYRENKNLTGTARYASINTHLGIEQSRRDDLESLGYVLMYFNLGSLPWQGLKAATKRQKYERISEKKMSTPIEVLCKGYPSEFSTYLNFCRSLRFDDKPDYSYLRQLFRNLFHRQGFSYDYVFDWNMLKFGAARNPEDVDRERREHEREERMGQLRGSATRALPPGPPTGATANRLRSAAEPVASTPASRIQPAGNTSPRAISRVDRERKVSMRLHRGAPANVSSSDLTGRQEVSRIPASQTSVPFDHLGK
Procedure, shortened: as §1

[1] = target: T2, RSK1(Kin.Dom.1-N-terminal) (Homo sapiens, UniProt Q15418); conditions: read-out: % control
T2 construct: RSK1(Kin.Dom.1-N-terminal)
T2 sequence (Q15418 62-321 limits assumed): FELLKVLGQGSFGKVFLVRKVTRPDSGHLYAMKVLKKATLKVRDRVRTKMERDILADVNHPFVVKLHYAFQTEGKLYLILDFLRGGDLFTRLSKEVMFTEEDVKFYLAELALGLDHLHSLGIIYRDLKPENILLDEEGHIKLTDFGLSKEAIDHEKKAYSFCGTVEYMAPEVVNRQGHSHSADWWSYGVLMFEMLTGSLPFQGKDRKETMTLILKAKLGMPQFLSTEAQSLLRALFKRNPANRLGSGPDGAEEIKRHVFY
Procedure, shortened: as §1

MAK = target: T3, MAK (Homo sapiens, UniProt P20794); conditions: read-out: % control
T3 sequence (P20794 1-623): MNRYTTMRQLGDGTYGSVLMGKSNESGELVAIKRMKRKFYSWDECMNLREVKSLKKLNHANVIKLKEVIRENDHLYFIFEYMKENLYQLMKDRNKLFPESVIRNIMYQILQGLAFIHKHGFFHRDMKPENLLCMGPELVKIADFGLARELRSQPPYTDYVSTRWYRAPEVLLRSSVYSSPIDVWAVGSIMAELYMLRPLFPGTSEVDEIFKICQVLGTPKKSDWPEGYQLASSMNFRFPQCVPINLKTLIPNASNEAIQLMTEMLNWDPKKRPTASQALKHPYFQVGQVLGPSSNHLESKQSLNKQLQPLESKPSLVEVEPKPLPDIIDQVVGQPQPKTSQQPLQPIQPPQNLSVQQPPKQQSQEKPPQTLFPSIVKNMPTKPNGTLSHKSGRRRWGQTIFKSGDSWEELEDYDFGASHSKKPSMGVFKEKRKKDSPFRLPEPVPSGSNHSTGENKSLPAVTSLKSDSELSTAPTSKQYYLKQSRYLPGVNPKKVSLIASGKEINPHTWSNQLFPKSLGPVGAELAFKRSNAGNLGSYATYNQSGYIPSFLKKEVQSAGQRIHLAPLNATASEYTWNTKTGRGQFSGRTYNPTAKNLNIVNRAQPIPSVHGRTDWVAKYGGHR
Procedure, shortened: as §1

PRKCE = target: T4, PRKCE (Homo sapiens, UniProt Q02156); conditions: read-out: % control
T4 sequence (Q02156 1-737): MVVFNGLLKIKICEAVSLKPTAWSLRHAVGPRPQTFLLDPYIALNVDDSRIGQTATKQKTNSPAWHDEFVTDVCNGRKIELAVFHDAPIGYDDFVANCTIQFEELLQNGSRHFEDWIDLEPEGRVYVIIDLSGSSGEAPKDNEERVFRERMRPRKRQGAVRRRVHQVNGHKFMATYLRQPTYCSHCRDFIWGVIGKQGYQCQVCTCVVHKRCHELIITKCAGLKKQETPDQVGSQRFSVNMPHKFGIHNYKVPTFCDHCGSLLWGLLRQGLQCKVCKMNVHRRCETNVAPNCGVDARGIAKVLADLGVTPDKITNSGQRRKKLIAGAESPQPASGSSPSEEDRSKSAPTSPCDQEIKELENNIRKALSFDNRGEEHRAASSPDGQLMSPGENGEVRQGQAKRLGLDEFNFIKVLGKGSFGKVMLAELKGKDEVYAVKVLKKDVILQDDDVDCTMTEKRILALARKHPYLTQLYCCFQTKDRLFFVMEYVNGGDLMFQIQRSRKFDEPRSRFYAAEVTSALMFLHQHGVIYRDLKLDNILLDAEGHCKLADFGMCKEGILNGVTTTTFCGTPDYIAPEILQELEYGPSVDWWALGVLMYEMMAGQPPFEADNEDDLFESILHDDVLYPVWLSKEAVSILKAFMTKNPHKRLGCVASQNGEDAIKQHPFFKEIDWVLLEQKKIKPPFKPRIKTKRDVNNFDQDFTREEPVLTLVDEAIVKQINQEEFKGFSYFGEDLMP
Procedure, shortened: as §1

MAP4K5 = MAP4K5 (Homo sapiens, UniProt Q9Y4K4); conditions: MAP4K5, 1 μM; read-out: % control
Procedure, shortened: as §1

WEE2 = WEE2 (Homo sapiens, UniProt P0C1S8); conditions: WEE2, 1 μM; read-out: % control
Procedure, shortened: as §1

QSK = QSK (Homo sapiens, UniProt Q9Y2K2); conditions: read-out: % control
QSK, sequence (Q9Y2K2 whole entry): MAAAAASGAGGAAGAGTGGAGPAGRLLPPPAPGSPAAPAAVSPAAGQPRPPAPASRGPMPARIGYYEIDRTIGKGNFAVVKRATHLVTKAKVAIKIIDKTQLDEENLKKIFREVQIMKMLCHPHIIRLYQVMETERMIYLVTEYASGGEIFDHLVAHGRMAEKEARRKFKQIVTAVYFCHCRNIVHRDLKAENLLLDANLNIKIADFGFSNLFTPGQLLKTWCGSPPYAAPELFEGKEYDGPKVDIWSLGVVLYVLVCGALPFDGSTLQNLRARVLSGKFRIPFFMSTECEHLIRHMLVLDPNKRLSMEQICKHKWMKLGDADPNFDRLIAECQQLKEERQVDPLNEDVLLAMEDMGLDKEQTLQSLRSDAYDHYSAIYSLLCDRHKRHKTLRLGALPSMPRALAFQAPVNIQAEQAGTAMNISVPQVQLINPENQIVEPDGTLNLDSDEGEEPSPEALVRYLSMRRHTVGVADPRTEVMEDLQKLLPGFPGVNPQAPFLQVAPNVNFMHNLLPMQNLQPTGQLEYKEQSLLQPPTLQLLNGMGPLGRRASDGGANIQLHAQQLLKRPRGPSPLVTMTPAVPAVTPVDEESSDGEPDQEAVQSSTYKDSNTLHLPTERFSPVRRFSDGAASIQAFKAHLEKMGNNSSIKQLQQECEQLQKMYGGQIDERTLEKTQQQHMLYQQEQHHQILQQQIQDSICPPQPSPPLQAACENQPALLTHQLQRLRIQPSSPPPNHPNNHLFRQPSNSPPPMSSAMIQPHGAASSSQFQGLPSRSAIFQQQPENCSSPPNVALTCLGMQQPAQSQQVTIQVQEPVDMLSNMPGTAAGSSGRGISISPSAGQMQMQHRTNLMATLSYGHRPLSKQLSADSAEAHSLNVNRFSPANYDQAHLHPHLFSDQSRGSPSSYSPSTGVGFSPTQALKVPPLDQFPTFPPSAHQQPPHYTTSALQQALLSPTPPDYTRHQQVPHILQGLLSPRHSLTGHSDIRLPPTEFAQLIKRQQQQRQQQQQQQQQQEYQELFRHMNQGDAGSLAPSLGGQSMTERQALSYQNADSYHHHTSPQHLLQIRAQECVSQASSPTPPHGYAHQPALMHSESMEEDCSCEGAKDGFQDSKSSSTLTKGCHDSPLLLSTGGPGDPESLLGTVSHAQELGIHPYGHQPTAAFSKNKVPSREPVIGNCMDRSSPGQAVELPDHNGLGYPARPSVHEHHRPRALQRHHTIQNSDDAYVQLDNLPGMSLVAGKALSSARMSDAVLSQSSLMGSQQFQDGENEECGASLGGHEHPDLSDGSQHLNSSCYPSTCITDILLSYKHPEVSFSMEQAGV
Procedure, shortened: as §1

MYO3A = MYO3A (Homo sapiens, UniProt Q8NEV4); conditions: read-out: % control
MYO3A, sequence (Q8NEV4 whole entry): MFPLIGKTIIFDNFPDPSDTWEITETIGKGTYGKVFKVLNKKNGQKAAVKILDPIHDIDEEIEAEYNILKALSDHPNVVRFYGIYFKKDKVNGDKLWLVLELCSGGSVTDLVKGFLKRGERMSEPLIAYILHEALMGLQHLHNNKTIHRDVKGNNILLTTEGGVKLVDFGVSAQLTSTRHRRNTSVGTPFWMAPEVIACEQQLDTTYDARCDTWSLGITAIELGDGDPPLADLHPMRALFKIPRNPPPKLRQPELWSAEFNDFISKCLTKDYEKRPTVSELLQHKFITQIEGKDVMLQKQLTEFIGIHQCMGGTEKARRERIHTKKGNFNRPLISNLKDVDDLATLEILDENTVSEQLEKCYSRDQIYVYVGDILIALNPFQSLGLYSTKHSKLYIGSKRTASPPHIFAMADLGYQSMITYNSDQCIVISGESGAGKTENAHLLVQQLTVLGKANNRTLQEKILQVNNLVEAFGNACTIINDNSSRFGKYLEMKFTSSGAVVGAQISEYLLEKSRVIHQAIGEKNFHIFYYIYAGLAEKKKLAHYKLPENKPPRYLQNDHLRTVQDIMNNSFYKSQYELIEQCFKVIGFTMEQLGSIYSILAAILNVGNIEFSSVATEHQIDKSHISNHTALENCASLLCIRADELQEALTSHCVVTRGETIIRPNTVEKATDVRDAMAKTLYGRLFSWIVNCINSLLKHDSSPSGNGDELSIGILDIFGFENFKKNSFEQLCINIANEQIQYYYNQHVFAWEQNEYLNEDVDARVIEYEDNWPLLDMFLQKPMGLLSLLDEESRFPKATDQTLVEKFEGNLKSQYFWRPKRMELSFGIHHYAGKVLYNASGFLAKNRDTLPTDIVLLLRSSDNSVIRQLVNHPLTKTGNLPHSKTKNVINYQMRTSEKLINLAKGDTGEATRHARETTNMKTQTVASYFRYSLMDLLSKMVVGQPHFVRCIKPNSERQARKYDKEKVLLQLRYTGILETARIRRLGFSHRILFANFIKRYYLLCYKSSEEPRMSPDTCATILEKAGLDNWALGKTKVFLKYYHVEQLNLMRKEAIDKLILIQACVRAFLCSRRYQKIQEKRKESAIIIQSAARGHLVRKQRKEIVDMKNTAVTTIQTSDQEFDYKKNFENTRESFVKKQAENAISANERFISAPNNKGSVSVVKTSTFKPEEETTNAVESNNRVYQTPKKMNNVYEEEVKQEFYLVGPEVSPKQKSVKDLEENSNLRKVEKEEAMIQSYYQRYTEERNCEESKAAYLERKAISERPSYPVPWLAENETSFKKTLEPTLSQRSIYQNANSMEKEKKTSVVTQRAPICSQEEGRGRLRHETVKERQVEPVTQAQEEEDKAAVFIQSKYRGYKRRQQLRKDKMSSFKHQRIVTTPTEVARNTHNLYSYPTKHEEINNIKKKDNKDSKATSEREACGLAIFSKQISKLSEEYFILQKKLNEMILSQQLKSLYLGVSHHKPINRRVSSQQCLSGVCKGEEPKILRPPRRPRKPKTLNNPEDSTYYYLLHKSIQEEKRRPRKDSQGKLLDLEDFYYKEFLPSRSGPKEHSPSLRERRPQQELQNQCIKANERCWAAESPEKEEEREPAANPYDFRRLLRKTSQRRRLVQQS
Procedure, shortened: as §1

LOK = LOK (Homo sapiens, UniProt O94804); conditions: read-out: % control
LOK, sequence (O94804 whole entry): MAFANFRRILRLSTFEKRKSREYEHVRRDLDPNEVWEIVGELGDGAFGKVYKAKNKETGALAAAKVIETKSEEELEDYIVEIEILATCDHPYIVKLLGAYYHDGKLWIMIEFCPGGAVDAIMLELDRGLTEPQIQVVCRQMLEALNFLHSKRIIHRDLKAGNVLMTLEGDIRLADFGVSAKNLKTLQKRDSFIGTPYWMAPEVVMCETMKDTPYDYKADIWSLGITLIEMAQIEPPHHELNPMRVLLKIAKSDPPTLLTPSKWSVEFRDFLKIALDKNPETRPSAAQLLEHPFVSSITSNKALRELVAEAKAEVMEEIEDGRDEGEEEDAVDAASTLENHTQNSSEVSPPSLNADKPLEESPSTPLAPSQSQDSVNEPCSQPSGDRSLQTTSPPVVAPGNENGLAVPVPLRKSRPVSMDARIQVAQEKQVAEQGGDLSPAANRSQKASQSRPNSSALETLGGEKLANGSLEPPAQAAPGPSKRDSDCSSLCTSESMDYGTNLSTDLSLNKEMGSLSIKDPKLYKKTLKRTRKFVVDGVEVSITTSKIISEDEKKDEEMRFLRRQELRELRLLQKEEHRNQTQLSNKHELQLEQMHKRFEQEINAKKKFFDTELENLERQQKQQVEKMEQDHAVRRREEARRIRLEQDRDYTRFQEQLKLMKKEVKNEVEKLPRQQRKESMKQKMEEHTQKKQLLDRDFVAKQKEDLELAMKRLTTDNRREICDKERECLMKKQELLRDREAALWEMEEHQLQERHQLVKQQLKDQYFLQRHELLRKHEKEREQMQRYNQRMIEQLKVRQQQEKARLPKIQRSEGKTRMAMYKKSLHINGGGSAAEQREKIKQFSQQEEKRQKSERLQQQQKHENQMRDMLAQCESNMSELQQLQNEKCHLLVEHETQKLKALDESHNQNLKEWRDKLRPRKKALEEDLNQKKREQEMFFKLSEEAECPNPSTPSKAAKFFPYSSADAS
Procedure, shortened: as §1

| SMILES | remaining binding at 1 µM (LKB1) | remaining binding at 1 µM (CSNK1E) | remaining binding at 1 µM [1] | remaining binding at 1 µM (MAK) | remaining binding at 1 µM (PRKCE) | remaining binding at 1 µM (MAP4K5) | remaining binding at 1 µM (WEE2) | remaining binding at 1 µM (QSK) | remaining binding at 1 µM (MYO3A) | remaining binding at 1 µM (LOK) |
| --- | --- | --- | --- | --- | --- | --- | --- | --- | --- | --- |
| CNc1c(-c2cnn([C@H]3CCN(C(C)=O)C[C@@H]3F)c2)cnc2[nH]cc(Cl)c12 [Compound 77, 1-((3S,4S)-4-(4-(3-chloro-4-(methylamino)-1H-pyrrolo[2,3-b]pyridin-5-yl)-1H-pyrazol-1-yl)-3-fluoropiperidin-1-yl)ethan-1-one] | 88% | 68% | 93% | 100% | 51% | 77% | 95% | 76% | 69% | 99% |
| O=C(c1ccc(-c2cnc3[nH]cc(Cl)c3c2NC2CCCC2)cc1)N1CCC(N2CCOCC2)CC1 [Compound 101, (4-(3-chloro-4-(cyclopentylamino)-1H-pyrrolo[2,3-b]pyridin-5-yl)phenyl)(4-morpholinopiperidin-1-yl)methanone] | 78% | 81% | 80% | 87% | 70% | 88% | 94% | 97% | 100% | 81% |
| CNc1c(-c2ccc(C(=O)N3CCC(N4CCOCC4)CC3)cc2)cnc2[nH]cc(Cl)c12 [Compound 96, (4-(3-chloro-4-(methylamino)-1H-pyrrolo[2,3-b]pyridin-5-yl)phenyl)(4-morpholinopiperidin-1-yl)methanone] | 91% | 17% | 100% | 97% | 66% | 39% | 100% | 76% | 64% | 88% |
